Usually IC50 stands for the concentration that gives 50% inhibition. Low values mean greater potency in that assay, high ones weaker potency in that assay.

The test has as its target Focal adhesion kinase (FAK) (Homo sapiens, UniProt Q05397). Kind of test: biochemical.

Sequence of Focal adhesion kinase (FAK) (Q05397 393-698): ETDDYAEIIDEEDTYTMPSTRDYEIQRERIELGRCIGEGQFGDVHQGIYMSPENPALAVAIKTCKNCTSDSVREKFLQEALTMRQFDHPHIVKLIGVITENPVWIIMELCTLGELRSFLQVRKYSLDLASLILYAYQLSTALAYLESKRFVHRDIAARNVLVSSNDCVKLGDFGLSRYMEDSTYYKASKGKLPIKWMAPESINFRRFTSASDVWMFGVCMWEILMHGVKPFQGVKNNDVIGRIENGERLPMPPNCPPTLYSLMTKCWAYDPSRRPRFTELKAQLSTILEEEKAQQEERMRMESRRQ

Turning to `CS(=O)(=O)c1cccc(CNc2nc(Nc3ccc4c(c3)CCC(=O)N4)ncc2C(F)(F)F)c1` [PF573228, 6‐[[4‐[(3‐methylsulfonylphenyl)methylamino]‐5‐(trifluoromethyl)pyrimidin‐2‐yl]amino]‐3,4‐dihydro‐1H‐quinolin‐2‐one], half-maximal inhibition (IC50) was put at 9 ± 0.03 nM.

Source of the values: publication PMC7955952 (Pharmacology Research & Perspectives, 2021).
